Source: patent publication US12679839B2, “Cyclin-dependent kinase 7 (CDK7) non-covalent inhibitors” (JANSSEN PHARMACEUTICA NV, priority 2020, dated 2026)

molecular target: T1, CDK7/Cyclin H/MAT-1 complex (Homo sapiens, UniProt P50613); experiment: Absorbance kinetic assay (20 nM CDK7/Cyclin H/MAT-1 complex); assay type: biochemical; conditions: read-out: CDK7 (20 nM) pIC50 (converted)
T1 construct: Human CDK7 (amino acids 1-346); His6 (N); TEV protease cleavage site (N); made in house; host or cells: baculovirus-SF9 insect cells
T1 sequence (P50613 whole entry, the tested form may be a part): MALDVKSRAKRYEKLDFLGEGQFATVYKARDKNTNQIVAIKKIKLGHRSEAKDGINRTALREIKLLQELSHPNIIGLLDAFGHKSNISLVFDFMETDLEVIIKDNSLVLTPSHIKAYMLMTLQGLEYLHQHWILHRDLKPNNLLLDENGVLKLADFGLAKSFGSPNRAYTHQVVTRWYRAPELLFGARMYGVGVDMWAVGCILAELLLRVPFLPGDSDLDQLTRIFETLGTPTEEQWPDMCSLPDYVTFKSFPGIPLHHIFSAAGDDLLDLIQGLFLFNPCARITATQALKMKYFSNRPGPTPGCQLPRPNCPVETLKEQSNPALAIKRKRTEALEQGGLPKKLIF
T1 sequence (P51946 whole entry partner, the tested form may be a part): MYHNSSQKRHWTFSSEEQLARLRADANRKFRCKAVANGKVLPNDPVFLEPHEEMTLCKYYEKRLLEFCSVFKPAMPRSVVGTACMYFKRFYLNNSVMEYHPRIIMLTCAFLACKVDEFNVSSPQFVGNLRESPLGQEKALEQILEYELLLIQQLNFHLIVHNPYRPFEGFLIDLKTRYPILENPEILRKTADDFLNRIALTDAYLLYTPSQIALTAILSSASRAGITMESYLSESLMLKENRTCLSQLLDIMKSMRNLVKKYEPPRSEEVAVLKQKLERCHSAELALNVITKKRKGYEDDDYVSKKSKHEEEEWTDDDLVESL
T1 sequence (P51948 whole entry partner, the tested form may be a part): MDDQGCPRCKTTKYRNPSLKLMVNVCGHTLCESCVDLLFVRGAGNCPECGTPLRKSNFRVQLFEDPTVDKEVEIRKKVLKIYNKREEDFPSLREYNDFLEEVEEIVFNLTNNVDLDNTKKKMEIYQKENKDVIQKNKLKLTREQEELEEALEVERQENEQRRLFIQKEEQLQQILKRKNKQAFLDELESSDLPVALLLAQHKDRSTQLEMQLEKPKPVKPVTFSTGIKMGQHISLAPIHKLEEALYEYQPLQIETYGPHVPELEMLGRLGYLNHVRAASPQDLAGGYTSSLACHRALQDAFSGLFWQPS
How it was run: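 Trimeric complex (His6-TEV CDK7 1-346, MAT1 1-309, cyclin H 1-323) from Sf9 cells, at 20 nM, phosphorylating RNA Pol II-derived CDK7/9-tide; ADP coupled via PK/LDH to NADH depletion read at 340 nm every 2 min for 8 h. Steady-state slopes gave % inhibition; IC50 from 11-point Hill fit.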

First: CC1CN(C(=O)[C@H]2CCN(C)C[C@@H]2c2ccccc2)Cc2nc(Nc3cnn(C)c3)ncc21 (mixture of isomers) [Compound 194]
Second: C[C@@H]1CN(C(=O)[C@H]2CCN(C)C[C@@H]2c2ccccc2)Cc2nc(NC3CCOCC3)ncc21 (relative stereo) [Compound 188]
The IC50 of the first is higher: 17.8 nM for the first, less than 9.77 nM for the second.

C[C@@H]1Cc2cnc(N[C@@H]3CCC(=O)N(C)C3)nc2CN1C(=O)[C@H]1CCN(C)C[C@@H]1c1ccccc1 (relative stereo) [Compound 6] and C[C@@H]1Cc2cnc(N[C@H]3CCOC(C)(C)C3)nc2CN1C(=O)[C@H]1CCN(C)C[C@@H]1c1ccccc1 (relative stereo) [Compound 39] cannot be ordered by IC50: less than 9.77 nM for the first, less than 20 nM for the second.

Going from Cc1cc([C@@H]2CN(C)CC[C@H]2C(=O)N2Cc3nc(NC4CCOCC4)ncc3C[C@H]2C)ccn1 (relative stereo) [Compound 102] to Cc1cccc([C@H]2CN(C)CC[C@@H]2C(=O)N2Cc3nc(NC4CCOCC4)ncc3C[C@H]2C)c1 (relative stereo) [Compound 134], the IC50 falls from 105 nM to less than 9.77 nM.

Compared with CO[C@H]1CC[C@H](Nc2ncc3c(n2)CN(C(=O)[C@@H]2CCN(C)C[C@H]2c2ccnc(C)c2)[C@H](C)C3)CC1 (relative stereo) [Compound 105], C[C@@H]1Cc2cnc(NC3CCOCC3)nc2CN1C(=O)[C@H]1CCN(C)C[C@@H]1c1cccc(F)c1 (relative stereo) [Compound 133] is higher in IC50: less than 9.77 nM for the first, 12.3 nM for the second.

C[C@@H]1Cc2cnc(NCc3ccn(C)n3)nc2CN1C(=O)[C@H]1CCN(C)C[C@@H]1c1cccc(C(F)(F)F)c1 (relative stereo) [Compound 129] and Cc1cccc([C@@H]2CN(C)CC[C@H]2C(=O)N2Cc3nc(NCc4ccn(C)n4)ncc3C[C@H]2C)c1 (relative stereo) [Compound 136] are within 1.5-fold of each other in IC50: 11.7 nM for the first, 11.5 nM for the second.

Going from C[C@@H]1Cc2cnc(NC3CCOCC3)nc2CN1C(=O)[C@H]1CCN(C)C[C@@H]1c1ccc(Cl)cc1 (relative stereo) [Compound 132] to C[C@@H]1CN(C)CC[C@H]1C(=O)N1Cc2nc(NC3CCOCC3)ncc2C[C@H]1C (relative stereo) [Compound 145], the IC50 rises from 9.77 nM to 67.6 nM (6.9-fold).

Going from C[C@@H]1Cc2cnc(NCc3ccn(C)n3)nc2CN1C(=O)[C@H]1CCN(C)C[C@@H]1c1ccccc1C(F)F (relative stereo) [Compound 139] to C[C@@H]1Cc2cnc(NCc3ccn(C)n3)nc2CN1C(=O)[C@H]1CCN(C)C[C@@H]1C(F)(F)F (relative stereo) [Compound 143], the IC50 falls from 91.2 nM to less than 9.77 nM.

Compared with C[C@@H]1Cc2cnc(NCc3ccccc3)nc2CN1C(=O)[C@@H]1CCN(C)C[C@H]1C(F)(F)F (relative stereo) [Compound 141], [2H]C([2H])([2H])N1CC[C@H](C(=O)N2Cc3nc(NCc4ccccc4)ncc3C[C@H]2C)[C@@H](c2ccccc2)C1 (single isomer, unassigned) [Compound 154] is lower in IC50: 39.8 nM for the first, less than 9.77 nM for the second.

Compared with C[C@@H]1Cc2cnc(N[C@H]3CCCNC3)nc2CN1C(=O)[C@H]1CCN(C)C[C@@H]1C(F)(F)F (relative stereo) [Compound 144], C[C@@H]1Cc2cnc(NC3CCOCC3)nc2CN1C(=O)[C@H]1CCN(C)C[C@@H]1C (relative stereo) [Compound 146] is higher in IC50: less than 9.77 nM for the first, 11.5 nM for the second.

Going from C[C@H]1CN(C(=O)[C@H]2CCN(C)C[C@@H]2c2ccccc2)[C@@H](C)c2nc(NC3CCOCC3)ncc21 (relative stereo) [Compound 181] to C[C@@H]1Cc2cnc(NC3CCOCC3)nc2[C@H](C)N1C(=O)[C@H]1CCN(C)C[C@@H]1c1ccccc1 (single isomer, unassigned) [Compound 195b], the IC50 falls from 126 nM to less than 9.77 nM.

First: CN1CC[C@H](C(=O)N2Cc3nc(NC4CCOCC4)ncc3CC2(C)C)[C@@H](c2ccccc2)C1 (relative stereo) [Compound 189]
Second: [2H]C([2H])([2H])N1CC[C@@H](C(=O)N2Cc3nc(NCc4ccn(C)n4)ncc3C[C@H]2C)[C@H](c2cccc(C)c2)C1 (single isomer, unassigned) [Compound 148]
The IC50 of the first is higher: 17.8 nM for the first, less than 9.77 nM for the second.
